Values after ≈ are worked out from the molar mass of the structure shown.

The subject of one test is Mycobacterium tuberculosis H37Rv strains. The experiment in a line: In vitro assay for antimicrobial susceptibility (microplate Alamar blue MIC). The settings on record: Mycobacterium tuberculosis, H37RV, 7H9, Alamar blue, inhibition ≧90%; read-out: MIC (μg/mL) against H37Rv. It is filed as cell-based. (The colour change of resazurin is a common sign of viable cells or microbes.)
For the molecule `CC(C)/N=c1\cc2n(-c3ccc(OC(F)(F)F)cc3)c3ccccc3nc-2cc1Nc1ccccn1` [TBI-952, 5-(4-Trifluoromethoxyphenyl)-3-(1-methylethyl)imino-2-(2-pyridyl)amino-3,5-dihydrophenazine], the MIC is 0.093 µg/mL (≈ 0.19 µM). The same measure, in the same setting: next, `CC(C)/N=c1\cc2n(-c3ccc(Cl)cc3)c3ccccc3nc-2cc1Nc1ncccn1` [TBI-1051, 5-(4-chlorophenyl)-3-(1-methylethyl)imino-2-(pyrimidin-2-yl)amino-3,5-dihydrophenazine]: 0.015 µg/mL (≈ 0.034 µM). On the same count and under the same terms, next, `Clc1cccc(-n2c3c/c(=N\C4CCOCC4)c(Nc4cncnc4)cc-3nc3ccccc32)c1` [TBI-980, 5-(3-Chlorophenyl)-3-(4-tetrahydropyranyl)imino-2-(pyrimidin-5-yl)amino-3,5-dihydrophenazine]: 0.06 µg/mL (≈ 0.124 µM); `FC(F)(F)Oc1ccc(-n2c3c/c(=N\C4CCOCC4)c(Nc4ncccn4)cc-3nc3ccccc32)cc1` [TBI-830, 5-(4-Trifluoromethoxyphenyl)-3-(4-tetrahydropyranyl)imino-2-(pyrimidin-2-yl)amino-3,5-dihydrophenazine]: 0.014 µg/mL (≈ 0.0263 µM); `N#Cc1cccnc1Nc1cc2nc3ccccc3n(-c3ccc(F)cc3)c-2c/c1=N\C1CCOCC1` [TBI-1086, 5-(4-Fluorophenyl)-3-(4-tetrahydropyranyl)imino-2-(3-cyano-2-pyridyl)amino-3,5-dihydrophenazine]: 0.04 µg/mL (≈ 0.0815 µM). In the case of `CC(C)/N=c1\cc2n(-c3ccc(F)c(F)c3)c3ccccc3nc-2cc1Nc1ccccn1` [TBI-1436, 5-(3,4-Difluorophenyl)-3-(1-methylethyl)imino-2-(2-pyridyl)amino-3,5-dihydrophenazine], the MIC was determined as 0.028 µg/mL (≈ 0.0634 µM). Regarding `COC1CCC(/N=c2\cc3n(-c4ccc(F)c(F)c4)c4ccccc4nc-3cc2Nc2ccc([N+](=O)[O-])cn2)CC1` (centres unmarked) [TBI-1444, 5-(3,4-Difluorophenyl)-3-(4-methoxycyclohexyl)imino-2-(5-nitro-2-pyridyl)amino-3,5-dihydrophenazine], the MIC came to 0.114 µg/mL (≈ 0.205 µM).

Still in this test, the particulars now being: Mycobacterium tuberculosis, H37RV, in vitro, Mycobacterium tuberculosis H37Rv strains; read-out: MIC (μg/mL) against H37Rv.
For `CC(C)/N=c1\cc2n(-c3ccc(F)cc3)c3ccccc3nc-2cc1Nc1cccnc1` [TBI-679, 5-(4-Fluorophenyl)-3-(1-methylethyl)imino-2-(3-pyridyl)amino-3,5-dihydrophenazine], the MIC is 0.03 µg/mL (≈ 0.0708 µM).

For the molecule `COc1ccc(Nc2cc3nc4ccccc4n(-c4ccc(C)cc4)c-3c/c2=N\C2CCC(OC)CC2)cn1` (centres unmarked) [TBI-358, 5-(4-Methylphenyl)-3-(4-methoxycyclohexyl)imino-2-(6-methoxy-3-pyrid)amino-3,5-dihydrophenazine], the MIC was found to be 0.202 µg/mL (≈ 0.389 µM).

Turning to `COc1ncccc1Nc1cc2nc3ccc(F)cc3n(-c3ccc(Cl)c(Cl)c3)c-2c/c1=N\C(C)C` [TBI-899, 7-Fluoro-5-(3,4-dichlorophenyl)-3-(1-methylethyl)imino-2-(2-methoxy-3-pyridyl)amino-3,5-dihydrophenazine], the MIC came to 0.125 µg/mL (≈ 0.239 µM). For `COc1ncccc1Nc1cc2nc3ccccc3n(-c3ccc(OC(F)(F)F)cc3)c-2c/c1=N\C1CC1` [TBI-364, 5-(4-Trifluoromethoxyphenyl)-3-cyclopropylimino-2-(2-methoxy-3-pyridyl)amino-3,5-dihydrophenazine], the MIC was 0.015 µg/mL (≈ 0.029 µM).

`Cc1ncccc1Nc1cc2nc3ccccc3n(-c3ccc(Br)cc3)c-2c/c1=N\C1CCCCC1` [TBI-508, 5-(4-Bromophenyl)-3-cyclohexylimino-2-(2-methyl-3-pyridyl)amino-3,5-dihydrophenazine]: the MIC is 0.021 µg/mL (≈ 0.039 µM). For `Cc1cncc(Nc2cc3nc4ccccc4n(-c4ccc(C(F)(F)F)cc4)c-3c/c2=N\C(C)C)c1` [TBI-721, 5-(4-Trifluoromethylphenyl)-3-(1-methylethyl)imino-2-(5-methyl-3-pyridyl)amino-3,5-dihydrophenazine], the MIC was 0.082 µg/mL (≈ 0.168 µM).

As for `CC(=O)Nc1ccc(-n2c3c/c(=N\C(C)C)c(Nc4ccc(C)nc4)cc-3nc3ccccc32)cc1` [TBI-1228, 5-(4-Acetamidophenyl)-3-(1-methylethyl)imino-2-(6-methyl-3-pyridyl)amino-3,5-dihydrophenazine], the MIC was determined as 2.4 µg/mL (≈ 5.03 µM).

For `COc1ncccc1Nc1cc2nc3ccccc3n(-c3ccc(OC(F)(F)F)cc3)c-2c/c1=N\C(C)C` [TBI-164, 5-(4-Trifluoromethoxyphenyl)-3-(1-methylethyl)imino-2-(2-methoxy-3-pyridyl)amino-3,5-dihydrophenazine], the MIC came out at 0.028 µg/mL (≈ 0.0539 µM). With `COC1CCC(/N=c2\cc3n(-c4ccc(C)cc4)c4ccccc4nc-3cc2Nc2cccnc2C)CC1` (centres unmarked) [TBI-322, 5-(4-Methylphenyl)-3-(4-methoxycyclohexyl)imino-2-(2-methyl-3-pyridyl)amino-3,5-dihydrophenazine], the MIC was found to be 0.092 µg/mL (≈ 0.183 µM). For `Cc1ncccc1Nc1cc2nc3ccccc3n(-c3ccc(F)cc3)c-2c/c1=N\C1CCC(O)CC1` (centres unmarked) [TBI-1015, 5-(4-Fluorophenyl)-3-(4-hydroxycyclohexyl)imino-2-(2-methyl-3-pyridyl)amino-3,5-dihydrophenazine], the MIC amounted to 0.387 µg/mL (≈ 0.784 µM). For the molecule `O[C@H]1CC[C@H](/N=c2\cc3n(-c4ccc(F)cc4)c4ccccc4nc-3cc2Nc2cccnc2)CC1` [TBI-921, 5-(4-Fluorophenyl)-3-(1′,4′-trans-4-hydroxycyclohexyl)imino-2-(3-pyridyl)amino-3,5-dihydrophenazine], the MIC turned out to be 0.434 µg/mL (≈ 0.905 µM). On to `Cc1ccc(Nc2cc3nc4ccccc4n(-c4ccc(C(F)(F)F)cc4)c-3c/c2=N\C2CCC2)cn1` [TBI-738, 5-(4-Trifluoromethylphenyl)-3-cyclobutylimino-2-(6-methyl-3-pyridyl)amino-3,5-dihydrophenazine], for which the MIC amounted to 0.029 µg/mL (≈ 0.0581 µM). On to `Cc1ncccc1Nc1cc2nc3ccccc3n(-c3ccc(F)cc3)c-2c/c1=N\C1CCSCC1` [TBI-1043, 5-(4-Fluorophenyl)-3-(4-tetrahydrothiopyranyl)imino-2-(2-methyl-3-pyridyl)amino-3,5-dihydrophenazine], for which the MIC was found to be 0.021 µg/mL (≈ 0.0424 µM). The same measure, in the same setting: the same measure for `CC(C)CN1CCC(/N=c2\cc3n(-c4ccc(C(F)(F)F)cc4)c4ccccc4nc-3cc2Nc2cccnc2)CC1` [TBI-687, 5-(4-Trifluoromethylphenyl)-3-(N-isobutyl-4-piperidyl)imino-2-(3-pyridyl)amino-3,5-dihydrophenazine]: 0.06 µg/mL (≈ 0.105 µM). Still for that read-out and setting: the same measure for `COc1ncccc1Nc1cc2nc3ccccc3n(-c3ccc(Br)cc3)c-2c/c1=N\C1CCC(OC)CC1` (centres unmarked) [TBI-521, 5-(4-Bromophenyl)-3-(4-methoxycyclohexyl)imino-2-(2-methoxy-3-pyridyl)amino-3,5-dihydrophenazine]: 0.031 µg/mL (≈ 0.053 µM); for `COC1CCC(/N=c2\cc3n(-c4ccc(C(F)(F)F)cc4)c4ccccc4nc-3cc2Nc2cncc(C)c2)CC1` (centres unmarked) [TBI-724, 5-(4-Trifluoromethylphenyl)-3-(4-methoxycyclohexyl)imino-2-(5-meth-3-pyridyl)amino-3,5-dihydrophenazine]: 0.03 µg/mL (≈ 0.0538 µM); for `COC1CCC(/N=c2\cc3n(-c4cccc(OC(F)(F)F)c4)c4ccccc4nc-3cc2Nc2cccnc2)CC1` (centres unmarked) [TBI-1024, 5-(3-Trifluoromethoxyphenyl)-3-(4-methoxycyclohexyl)imino-2-(3-pyridyl)amino-3,5-dihydrophenazine]: 0.112 µg/mL (≈ 0.2 µM). The same measure, in the same setting: next, `COc1ncccc1Nc1cc2nc3ccc(F)cc3n(-c3ccc(Cl)c(Cl)c3)c-2c/c1=N\C1CC1` [TBI-885, 7-Fluoro-5-(3,4-dichlorophenyl)-3-cyclopropylimino-2-(2-methoxy-3-pyridyl)amino-3,5-dihydrophenazine]: 0.06 µg/mL (≈ 0.115 µM). For `Cc1ccc(-n2c3c/c(=N\C4CC4)c(Nc4cncc(C)c4)cc-3nc3ccccc32)cc1` [TBI-342, 5-(4-Methylphenyl)-3-cyclopropylimino-2-(5-methyl-3-pyridyl)amino-3,5-dihydrophenazine], the MIC was 0.022 µg/mL (≈ 0.051 µM).

Turning to `COc1ncccc1Nc1cc2nc3ccccc3n(-c3ccc(NC(C)=O)cc3)c-2c/c1=N\C1CCCCC1` [TBI-1223, 5-(4-Acetamidophenyl)-3-cyclohexylimino-2-(2-methoxy-3-pyridyl)amino-3,5-dihydrophenazine], the MIC was determined as 1.49 µg/mL (≈ 2.79 µM).

For the molecule `Clc1ccc(-n2c3c/c(=N\C4CC4)c(Nc4cccnc4)cc-3nc3ccccc32)cc1Cl` [TBI-343, 5-(3,4-Dichlorophenyl)-3-cyclopropylimino-2-(3-pyridyl)amino-3,5-dihydrophenazine], the MIC came to 0.014 µg/mL (≈ 0.0296 µM). On to `Fc1ccc(-n2c3c/c(=N\C4CCOCC4)c(Nc4cccnc4)cc-3nc3ccccc32)cc1` [TBI-681, 5-(4-Fluorophenyl)-3-(4-tetrahydropyranyl)imino-2-(3-pyridyl)amino-3,5-dihydrophenazine], for which the MIC is 0.06 µg/mL (≈ 0.129 µM). As for `Cc1ccc(-n2c3c/c(=N\C4CCOCC4)c(Nc4cncc(C)c4)cc-3nc3ccccc32)cc1` [TBI-328, 5-(4-Methylphenyl)-3-(4-tetrahydropyranyl)imino-2-(5-methyl-3-pyridyl)amino-3,5-dihydrophenazine], the MIC was 0.037 µg/mL (≈ 0.0778 µM). In the case of `Fc1ccc(-n2c3c/c(=N\CCN4CCOCC4)c(Nc4cccnc4)cc-3nc3ccccc32)cc1` [TBI-680, 5-(4-Fluorophenyl)-3-(2-morpholinoethyl)imino-2-(3-pyridyl)amino-3,5-dihydrophenazine], the MIC turned out to be 0.5 µg/mL (≈ 1.01 µM).

On to `FC(F)(F)Oc1ccc(-n2c3c/c(=N\CCN4CCOCC4)c(Nc4cccnc4)cc-3nc3ccccc32)cc1` [TBI-160], for which the MIC was 0.125 µg/mL (≈ 0.223 µM). The same measure, in the same setting: next, `Cc1ncccc1Nc1cc2nc3ccccc3n(-c3ccc(Cl)cc3)c-2c/c1=N\C1CCOCC1` [TBI-452]: 0.168 µg/mL (≈ 0.339 µM); `Cc1ccc(Nc2cc3nc4ccccc4n(-c4ccc(C(F)(F)F)cc4)c-3c/c2=N\CCN2CCOCC2)cn1` [TBI-698, 5-(4-Trifluoromethylphenyl)-3-(2-morpholinoethyl)imino-2-(6-meth-3-pyridyl)amino-3,5-dihydrophenazine]: 0.108 µg/mL (≈ 0.193 µM); `Clc1cccc(-n2c3c/c(=N\C4CCC4)c(Nc4cccnc4)cc-3nc3ccccc32)c1` [TBI-814, 5-(3-Chlorophenyl)-3-cyclobutylimino-2-(3-pyridyl)amino-3,5-dihydrophenazine]: 0.04 µg/mL (≈ 0.0885 µM).

Source of the values: patent publication US8716292B2, “Riminophenazines with 2-(heteroaryl)amino substituents and their anti-microbial activity” (priority 2010, dated 2014).
